Legend:
[1] = target: T1, wt human TYK2, catalytic site (Homo sapiens, UniProt P29597); experiment: HTRF KinEASE assay, TYK2; assay type: biochemical; settings: 1 μM ATP; read-out: IC50, Activity Toward TYK2
T1 construct: wt human TYK2, catalytic site; purchased SignalChem
T1 sequence (P29597 897-1176 limits assumed): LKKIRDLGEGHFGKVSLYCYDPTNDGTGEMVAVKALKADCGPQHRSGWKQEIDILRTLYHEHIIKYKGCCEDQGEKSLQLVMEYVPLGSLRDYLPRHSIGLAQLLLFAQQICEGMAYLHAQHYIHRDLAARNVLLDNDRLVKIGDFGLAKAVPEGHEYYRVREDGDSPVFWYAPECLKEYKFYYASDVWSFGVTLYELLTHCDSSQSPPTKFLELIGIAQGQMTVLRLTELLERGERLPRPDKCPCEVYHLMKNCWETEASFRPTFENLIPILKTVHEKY
How it was run: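 HTRF KinEASE-TK readout with 1 μM biotinylated TK substrate in 1× kinase buffer, ≥30 min at room temperature, then antibody/streptavidin-XL665 detection for 60 min. TYK2 at 2 nM with 1 μM ATP; JAK2 at 1 nM with 100 μM ATP. Analysis uses emission ratios.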

[2] = target: T2, wt human JAK1, catalytic site (Homo sapiens, UniProt P23458); experiment: HTRF KinEASE assay, JAK1; assay type: biochemical; settings: 2.5 μM ATP; read-out: IC50, Activity Toward JAK1
T2 construct: wt human JAK1, catalytic site; purchased ThermoFisher
T2 sequence (P23458 875-1153 limits assumed): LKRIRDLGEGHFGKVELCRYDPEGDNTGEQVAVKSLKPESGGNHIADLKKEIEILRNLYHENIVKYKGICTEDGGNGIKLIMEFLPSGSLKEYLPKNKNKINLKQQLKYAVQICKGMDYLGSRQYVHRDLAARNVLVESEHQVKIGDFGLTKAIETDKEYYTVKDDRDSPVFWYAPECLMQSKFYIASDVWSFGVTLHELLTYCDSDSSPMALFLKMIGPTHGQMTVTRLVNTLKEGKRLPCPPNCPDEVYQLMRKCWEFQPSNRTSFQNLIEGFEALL
How it was run: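 Two-step HTRF KinEASE assay: compound, kinase/biotinylated TK substrate and ATP were incubated at least 30 min at room temperature. Antibody plus streptavidin-XL665 was then added and plates were read after 60 min. Inhibition was derived from emission ratios according to the kit protocol.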

Row | SMILES | IC50 [1] | IC50 [2]
1 | CCc1ncnn1-c1ccc(Nc2cn(-c3c(Cl)cccc3Cl)nc2C(N)=O)cc1 [compound 291, 1-(2,6-dichlorophenyl)-4-((4-(5-ethyl-1H-1,2,4-triazol-1-yl)phenyl)amino)-1H-pyrazole-3-carboxamide] | 10 to 100 nM | < 10 nM
2 | CCn1cc(C(F)(F)F)nc1-c1ccc(Nc2cn(-c3c(Cl)cccc3Cl)nc2C(N)=O)cc1 [compound 293, 1-(2,6-dichlorophenyl)-4-((4-(1-ethyl-4-(trifluoromethyl)-1H-imidazol-2-yl)phenyl)amino)-1H-pyrazole-3-carboxamide] | 10 to 100 nM | 10 to 100 nM
3 | COCc1nc(C(F)(F)F)nn1-c1ccc(Nc2cn(-c3c(F)cccc3Cl)nc2C(N)=O)cc1 [compound 298, 1-(2-chloro-6-fluorophenyl)-4-((4-(5-(methoxymethyl)-3-(trifluoromethyl)-1H-1,2,4-triazol-1-yl)phenyl)amino)-1H-pyrazole-3-carboxamide] | 10 to 100 nM | 100 to 1000 nM
4 | COCc1ncnn1-c1ccc(Nc2cn(-c3c(Cl)cccc3Cl)nc2C(N)=O)cc1 [compound 300, 1-(2,6-dichlorophenyl)-4-((4-(5-(methoxymethyl)-1H-1,2,4-triazol-1-yl)phenyl)amino)-1H-pyrazole-3-carboxamide] | 10 to 100 nM | 100 to 1000 nM
5 | COCCn1cc(C(F)(F)F)nc1-c1ccc(Nc2cn(-c3c(Cl)cccc3Cl)nc2C(N)=O)cc1 [compound 307, 1-(2,6-dichlorophenyl)-4-((4-(1-(2-methoxyethyl)-4-(trifluoromethyl)-1H-imidazol-2-yl)phenyl)amino)-1H-pyrazole-3-carboxamide] | 10 to 100 nM | 100 to 1000 nM
6 | CC(C)(C)OC(=O)N[C@@H]1CCN(C(=O)c2ccc(Nc3cn(-c4c(Cl)cccc4Cl)nc3C(N)=O)cc2)C1 [compound 324, (R)-tert-butyl_(1-(4-((3-carbamoyl-1-(2,6-dichlorophenyl)-1H-pyrazol-4-yl)amino)benzoyl)pyrrolidin-3-yl)carbamate] | 100 to 1000 nM | 100 to 1000 nM
7 | CC(C)(C)OC(=O)N[C@H]1CCN(C(=O)c2ccc(Nc3cn(-c4c(Cl)cccc4Cl)nc3C(N)=O)cc2)C1 [compound 325, (S)-tert-butyl_(1-(4-((3-carbamoyl-1-(2,6-dichlorophenyl)-1H-pyrazol-4-yl)amino)benzoyl)pyrrolidin-3-yl)carbamate] | 10 to 100 nM | 100 to 1000 nM
8 | COCCc1nc(C(F)(F)F)nn1-c1ccc(Nc2cn(-c3c(Cl)cccc3Cl)nc2C(N)=O)cc1 [compound 330, 1-(2,6-dichlorophenyl)-4-((4-(5-(2-methoxyethyl)-3-(trifluoromethyl)-1H-1,2,4-triazol-1-yl)phenyl)amino)-1H-pyrazole-3-carboxamide] | 10 to 100 nM | 10 to 100 nM
9 | Cc1cnncc1-c1ccc(Nc2cn(-c3c(Cl)cccc3Cl)nc2C(N)=O)cc1 [compound 340, 1-(2,6-dichlorophenyl)-4-((4-(5-methylpyridazin-4-yl)phenyl)amino)-1H-pyrazole-3-carboxamide] | 10 to 100 nM | 100 to 1000 nM
10 | CC(C)c1ncnn1-c1ccc(Nc2cn(-c3c(Cl)cccc3Cl)nc2C(N)=O)cc1 [compound 341, 1-(2,6-dichlorophenyl)-4-((4-(5-isopropyl-1H-1,2,4-triazol-1-yl)phenyl)amino)-1H-pyrazole-3-carboxamide] | 10 to 100 nM | 100 to 1000 nM
11 | Cc1cnncc1-c1ccc(Nc2cn(-c3c(Cl)cccc3Cl)nc2C(N)=O)cn1 [compound 350, 1-(2,6-dichlorophenyl)-4-((6-(5-methylpyridazin-4-yl)pyridin-3-yl)amino)-1H-pyrazole-3-carboxamide] | 100 to 1000 nM | 100 to 1000 nM
12 | CCc1cnncc1-c1ccc(Nc2cn(-c3c(Cl)cccc3Cl)nc2C(N)=O)cn1 [compound 351, 1-(2,6-dichlorophenyl)-4-((6-(5-ethylpyridazin-4-yl)pyridin-3-yl)amino)-1H-pyrazole-3-carboxamide] | 10 to 100 nM | 100 to 1000 nM
13 | NC(=O)c1nn(-c2c(Cl)cccc2Cl)cc1Nc1ccc(-c2ccnnc2)nc1 [compound 352, 1-(2,6-dichlorophenyl)-4-((6-(pyridazin-4-yl)pyridin-3-yl)amino)-1H-pyrazole-3-carboxamide] | 100 to 1000 nM | 100 to 1000 nM
14 | CN(C)[C@H]1CCN(C(=O)c2ccc(Nc3cn(-c4c(Cl)cccc4Cl)nc3C(N)=O)cn2)C1 [compound 354, (S)-1-(2,6-dichlorophenyl)-4-((6-(3-(dimethylamino)pyrrolidine-1-carbonyl)pyridin-3-yl)amino)-1H-pyrazole-3-carboxamide] | 10 to 100 nM | 100 to 1000 nM
15 | NC(=O)c1nn(-c2c(Cl)cccc2Cl)cc1Nc1ccc(C(=O)N2CC[C@@H](N3CCCC3)C2)nc1 [compound 356, (R)-4-((6-([1,3′-bipyrrolidine]-1′-carbonyl)pyridin-3-yl)amino)-1-(2,6-dichlorophenyl)-1H-pyrazole-3-carboxamide] | 10 to 100 nM | 100 to 1000 nM
16 | NC(=O)c1nn(-c2c(Cl)cccc2Cl)cc1Nc1ccc(C(=O)N2CC[C@H](N)C2)nc1 [compound 357, (S)-4-((6-(3-aminopyrrolidine-1-carbonyl)pyridin-3-yl)amino)-1-(2,6-dichlorophenyl)-1H-pyrazole-3-carboxamide] | 10 to 100 nM | 100 to 1000 nM
17 | NC(=O)c1nn(-c2c(Cl)cccc2Cl)cc1Nc1ccc(C(=O)N2CCCC2)nc1 [compound 358, 1-(2,6-dichlorophenyl)-4-((6-(pyrrolidine-1-carbonyl)pyridin-3-yl)amino)-1H-pyrazole-3-carboxamide] | 10 to 100 nM | 100 to 1000 nM
18 | Cn1cnnc1-c1ccc(Nc2cn(-c3c(Cl)cccc3Cl)nc2C(N)=O)cn1 [compound 360, 1-(2,6-dichlorophenyl)-4-((6-(4-methyl-4H-1,2,4-triazol-3-yl)pyridin-3-yl)amino)-1H-pyrazole-3-carboxamide] | 10 to 100 nM | 100 to 1000 nM

Further lines, results first:

Row | IC50 [1] | IC50 [2] | SMILES
19 | 10 to 100 nM | 10 to 100 nM | CS(=O)(=O)Nc1ccc(Nc2cn(-c3c(Cl)cccc3Cl)nc2C(N)=O)cc1 [compound 271, 1-(2,6-dichlorophenyl)-4-((4-(methylsulfonamido)phenyl)amino)-1H-pyrazole-3-carboxamide]
20 | 10 to 100 nM | 10 to 100 nM | CN(C)CCc1nnnn1-c1ccc(Nc2cn(-c3c(Cl)cccc3Cl)nc2C(N)=O)cc1 [compound 273, 1-(2,6-dichlorophenyl)-4-((4-(5-(2-(dimethylamino)ethyl)-1H-tetrazol-1-yl)phenyl)amino)-1H-pyrazole-3-carboxamide]
21 | < 10 nM | 10 to 100 nM | Cc1nc(C(F)(F)F)nn1-c1ccc(Nc2cn(-c3c(Cl)cccc3Cl)nc2C(N)=O)cc1 [compound 275, 1-(2,6-dichlorophenyl)-4-((4-(5-methyl-3-(trifluoromethyl)-1H-1,2,4-triazol-1-yl)phenyl)amino)-1H-pyrazole-3-carboxamide]
22 | < 10 nM | 100 to 1000 nM | CCc1nc(C(F)(F)F)nn1-c1ccc(Nc2cn(-c3c(Cl)cccc3Cl)nc2C(N)=O)cc1 [compound 277, 1-(2,6-dichlorophenyl)-4-((4-(5-ethyl-3-(trifluoromethyl)-1H-1,2,4-triazol-1-yl)phenyl)amino)-1H-pyrazole-3-carboxamide]
23 | < 10 nM | 100 to 1000 nM | COCc1nc(C(F)(F)F)nn1-c1ccc(Nc2cn(-c3c(Cl)cccc3Cl)nc2C(N)=O)cc1 [compound 281, 1-(2,6-dichlorophenyl)-4-((4-(5-(methoxymethyl)-3-(trifluoromethyl)-1H-1,2,4-triazol-1-yl)phenyl)amino)-1H-pyrazole-3-carboxamide]
24 | < 10 nM | 10 to 100 nM | COCn1cc(C(F)(F)F)nc1-c1ccc(Nc2cn(-c3c(Cl)cccc3Cl)nc2C(N)=O)cc1 [compound 292, 1-(2,6-dichlorophenyl)-4-((4-(1-(methoxymethyl)-4-(trifluoromethyl)-1H-imidazol-2-yl)phenyl)amino)-1H-pyrazole-3-carboxamide]
25 | < 10 nM | 10 to 100 nM | Cn1cc(C(F)(F)F)nc1-c1ccc(Nc2cn(-c3c(Cl)cccc3Cl)nc2C(N)=O)cc1 [compound 294, 1-(2,6-dichlorophenyl)-4-((4-(1-methyl-4-(trifluoromethyl)-1H-imidazol-2-yl)phenyl)amino)-1H-pyrazole-3-carboxamide]
26 | < 10 nM | 100 to 1000 nM | CN(C)Cc1nc(C(F)(F)F)nn1-c1ccc(Nc2cn(-c3c(Cl)cccc3Cl)nc2C(N)=O)cc1 [compound 297, 1-(2,6-dichlorophenyl)-4-((4-(5-((dimethylamino)methyl)-3-(trifluoromethyl)-1H-1,2,4-triazol-1-yl)phenyl)amino)-1H-pyrazole-3-carboxamide]
27 | < 10 nM | 10 to 100 nM | NC(=O)c1nn(-c2c(Cl)cccc2Cl)cc1Nc1ccc(-n2ncnc2CO)cc1 [compound 348, 1-(2,6-dichlorophenyl)-4-((4-(5-(hydroxymethyl)-1H-1,2,4-triazol-1-yl)phenyl)amino)-1H-pyrazole-3-carboxamide]
